Read-outs that look alike come from different tables or passages of the source.
Columns and labels:
Assay type in all cases: cell-based
[1] = system: Trentepohlia aurea, Tretepohlia odorata, and Calotrix parientina (Cp + To + Ta); test: Algal efficacy testing, modified ASTM 5589, paint film (Flumetsulam + ZPT study); settings: four weeks; for % inhibition: at the Total conc given; for Total conc (minimum inhibitory concentration chosen for SI): in acrylic latex paint, dry film, 25-26 C, light-dark
Method: (§1) Sample preparation: A single or blend of biocides was post added into white acrylic latex paint free of biocides to give a maximum total active ingredient/s concentration tested. This paint was then diluted with a biocide free acrylic latex paint to give targeted concentrations for the testing. Depending on the type of biocide blends tested, the total biocides concentrations varies from 200 to 5000 ppm. After biocides addition or dilution, each sample was hand mixed for at least a minute until uniformity is achieved. Each of the paint samples as well as a control sample (containing no biocide) were used to prepare films on black plastic-vinyl chloride/acetate copolymer panels (LENETA, Mahwah, N.J.) using a 3 mil (0.0762 mm) bird bar applicator. The panels were thoroughly dried for at least 2 days avoiding direct exposure to sunlight. Square discs ([…]) were cut out from each panel and were used as the substrate for fungal and algal efficacy tests. This sample size allowed for an agar border when the sample disc was placed into the well of the test plate. Each sample was tested in duplicate
(§2) Test conditions: The appropriate media (BOLD'S 3N for Chlorophytes, BG-11 for Cyanobacteria, and PDA for fungi) were used to support microbial growth. The test plates were maintained at room temp (25° C.-26° C.), in a cycled light-dark environment, for four weeks for algae. Plates for fungal challenge tests were maintained at 30 C for four weeks. At the end of the incubation period the samples were scored for percent area covered by visible microbial growth.
(§3) ASTM 5589 is a standard accelerated test method for determining resistance of various coatings (including paints) to algal defacement. To accommodate for high-throughput screening, this method was scaled down from petri plates to 6-well plates. A single coupon was placed with a pair of sterile forceps at the center of the agar plug (on top) with the painted surface facing upwards. Algal inoculums were prepared by mixing equal concentrations (1×10^6 cfu/ml) and equal volumes (depending on number of samples to be inoculated) of like growing organisms.
(§4) In Flumetsulam+various IT synergy study, three pool of mixed algae were prepared as the test inoculum, Gloeocapsa sp. and Oscillatoria sp. a mix of cyanobacteria grown on BG-11 media; Chlorella sp., Chlorella kessleri, and Nostoc commune are unicellular chlorphytes that were mixed and grown on Bold media; Trentepohlia aurea, Tretepohlia odorata, and Calotrix parientina are filamentous algae that were mixed and grown on Bold media.
(§5) Each well that contains a tested coupon was inoculated with 400 μl of organism mixture (1×10^6 cfu/ml) making sure that the whole surface (paint film as well as the agar surrounding it) was evenly covered. The plates were incubated at room temp (25° C.-26° C.) with cyclic exposure to light (OTT-Lite model # OTL4012P, 40 Watt, 26KLumen) and dark phases, for a period of four weeks. The total area covered was evaluated at the end of each week according to percent area covered in 5% increments.
(§6) The SI is calculated based on F. C.
(§7) NE=no end point at the concentration tested that will meet the percent inhibition criteria set in each SI calculation

[2] = system: Chlorella sp., Chlorella kessleri, and Nostoc commune (Cs + Ck + Nc); test: as above; settings: four weeks; for % inhibition: at the Total conc given
Method: as §1, §2, §3, §4, §5, §6, §7

[3] = system: Cladosporium herbarum mixed with Aureobasidium pullulans (ApCh); test: Fungal efficacy testing, modified ASTM 5590, paint film (Flumetsulam + ZPT study); settings: four weeks; for % inhibition: at the Total conc given
Method: as §1, §2
(§8) ASTM 5590 is a standard accelerated test method for determining resistance of various coatings (including paints) to fungal defacement. To accommodate for high-throughput screening, this method was scaled down from petri plates to 6-well plates. To set up the test, an agar plug was placed at the bottom of each well of the sterile 6-well plate. A single coupon was placed with a pair of sterile forceps at the center of the agar plug (on top) with the painted surface facing upwards. Fungal inoculums were prepared by mixing equal concentrations (1×10^6 cfu/ml) and equal volumes (depending on number of samples to be tested) of like growing organisms. For Flumetsulam+various IT synergy study, three pools of mixed fungi were prepared as the test inoculum. Cladosporium herbarum was mixed with Aureobasidium pullulans; Aspergillus niger was mixed with Penicillium funiculosum and Alternaria alternata was mixed with Trichoderma viride. For Diclosulam+various IT synergy study, all above fungi were mixed as a single pool. Each well was inoculated with 400 μl of organism mixture (1×10^6 cfu/ml) making sure that the whole surface (paint film as well as the agar surrounding it) was evenly covered. The plates were incubated at 30° C. in presence of moisture, for a period of four weeks. The total percent area covered was evaluated and recorded at the end of each week after the 2nd week and recorded in increments of 5%.
as §6, §7

[4] = system: Aspergillus niger mixed with Penicillium funiculosum (AnPf); test: as above; settings: four weeks; for % inhibition: at the Total conc given
Method: as §1, §2, §8, §6, §7

[5] = system: Alternaria alternata mixed with Trichoderma viride (AaTv); test: as above; settings: four weeks; for % inhibition: at the Total conc given
Method: as §1, §2, §8, §6, §7

[6] = system: Gloeocapsa sp. and Oscillatoria sp. (Gs + Os); test: Algal efficacy testing, modified ASTM 5589, paint film (both studies); settings: four weeks; for MIC: 672 h, read-out: Total conc (minimum inhibitory concentration chosen for SI); for MIC / Total conc (minimum inhibitory concentration chosen for SI): in acrylic latex paint, dry film; for % inhibition: at the Total conc given
Method: as §1, §2, §3, §4
(§9) In Diclosulam+various IT synergy study, only two pools of mixed algae were prepared; Gloeocapsa sp. and Oscillatoria sp. grown on BG-11 media and Chlorella sp., Chlorella kessleri, Nostoc commune, Trentepohlia aurea, Tretepohlia odorata, and Calotrix parientina grown on Bold media
as §5, §6, §7

[7] = system: Chlorella sp., Chlorella kessleri, Nostoc commune, Trentepohlia aurea, Tretepohlia odorata, and Calotrix parientina (Cp + To + Ta + Cs + Ck + Nc); test: Algal efficacy testing, modified ASTM 5589, paint film (Diclosulam + ZPT study); settings: four weeks; for % inhibition: at the Total conc given
Method: as §1, §2, §3, §9
(§10) Each well that contains a tested coupon was inoculated with 400 μl of organism mixture (1×10^6 cfu/ml) making sure that the whole surface (paint film as well as the agar surrounding it) was evenly covered. […] The total area covered was evaluated at the end of each week according to percent area covered in 5% increments.
(§11) The SI is calculated based on F. C. […]

[8] = system: Aa + Tv + An + Pf + Ap + Ch; test: Fungal efficacy testing, modified ASTM 5590, paint film (Diclosulam + ZPT study, single pool of all fungi); settings: four weeks; for % inhibition: at the Total conc given; for Total conc: in acrylic latex paint, dry film, 30 C
Method: as §1, §2
as §8, with “Each well was inoculated with 400 μl of organism mixture (1×10^6 cfu/ml) making sure that the whole surface (paint film as well as the agar surrounding it) was evenly covered. The plates were incubated at 30° C. in presence of moisture, for a period of four weeks.” left out
as §11

[9] = Algal efficacy testing, modified ASTM 5589, paint film (Diclosulam + ZPT study); settings: Nostoc commune, 672 h; Cp + To + Ta + Cs + Ck + Nc; in acrylic latex paint, dry film; four weeks; read-out: Total conc (minimum inhibitory concentration chosen for SI)
Method: as §1, §2, §3, §9, §10, §11

[10] = in acrylic latex paint, dry film, 30 C

Row | Compound | % inhibition [1] | Total conc (minimum inhibitory concentration chosen for SI) [1] | % inhibition [2] | % inhibition [3] | % inhibition [4] | % inhibition [5] | % inhibition ([6]; Flumetsulam and ZPT study) | % inhibition [7] | % inhibition ([6]; Diclosulam and ZPT study) | % inhibition [8] | Total conc [8] | further results
1 | Cc1ccn2nc(S(=O)(=O)Nc3c(F)cccc3F)nc2n1 [Flumetsulam, N-(2,6-difluorophenyl)-5-methyl[1,2,4]triazolo[1,5-a]pyrimidine-2-sulfonamide] | 100% | 2625 ppm | 90% | 25% | 0% | 0% | 0% |  |  |  |  | MIC ([2]; Nostoc commune, 672 h, in acrylic latex paint, dry film, 25-26 C, light-dark, read-out: Total conc (minimum inhibitory concentration chosen for SI)): 3500 µg/mL; MIC ([3]; Cladosporium herbarum, 672 h, in acrylic latex paint, dry film, 30 C, read-out: Total conc (minimum inhibitory concentration chosen for SI)): 3500 µg/mL; MIC ([4]; Aspergillus niger, 672 h, in acrylic latex paint, dry film, 30 C, read-out: Total conc (minimum inhibitory concentration chosen for SI)): 3500 µg/mL; MIC ([5]; Alternaria alternata, 672 h, in acrylic latex paint, dry film, 30 C, NE = no end point at the concentration tested, read-out: Total conc (minimum inhibitory concentration chosen for SI)): 3500 µg/mL; MIC ([6]; Flumetsulam and ZPT study): 2620 µg/mL
2 | zinc pyrithione [ZPT] | 100% | 625 ppm | 100% | 100% | 100% | 50% | 100% | 100% | 100% | 0% | 5000 ppm | Total conc (minimum inhibitory concentration chosen for SI) ([2]; in acrylic latex paint, dry film, 25-26 C, light-dark): 625 ppm; Total conc (minimum inhibitory concentration chosen for SI) ([7]; in acrylic latex paint, dry film): 625 ppm; Total conc (minimum inhibitory concentration chosen for SI) [3, 10]: 625 ppm; Total conc (minimum inhibitory concentration chosen for SI) [4, 10]: 625 ppm; Total conc (minimum inhibitory concentration chosen for SI) ([5]; in acrylic latex paint, dry film, 30 C, NE = no end point at the concentration tested): 5000 ppm; Total conc (minimum inhibitory concentration chosen for SI) ([6]; Diclosulam and ZPT study): 625 ppm; Total conc (minimum inhibitory concentration chosen for SI) ([6]; Flumetsulam and ZPT study): 625 ppm
3 | CCOc1nc(F)cc2nc(S(=O)(=O)Nc3c(Cl)cccc3Cl)nn12 [Diclosulam, N-(2,6-dichlorophenyl)-5-ethoxy-7-fluoro[1,2,4]triazolo[1,5-c]pyrimidine-2-sulfonamide] |  |  |  |  |  |  |  | 80% | 100% | 0% | 3500 ppm | MIC [9]: 3500 µg/mL; MIC ([6]; Diclosulam and ZPT study): 438 µg/mL

From patent publication US8501725B2, “Synergistic combination of flumetsulam or diclosulam with zinc pyrithione” (Dow Global Technologies LLC, priority 2010, dated 2013)
